The text below walks through data of PMC7463734, “Identification and Validation of an Aspergillus nidulans Secondary Metabolite Derivative as an Inhibitor of the Musashi-RNA Interaction” (Cancers, 2020).

For one data set, the target named is T1, RBD1 of MSI1 (Homo sapiens, UniProt O43347).
T1 construct: made in house; host or cells: Escherichia coli
T1 sequence (O43347 20-107): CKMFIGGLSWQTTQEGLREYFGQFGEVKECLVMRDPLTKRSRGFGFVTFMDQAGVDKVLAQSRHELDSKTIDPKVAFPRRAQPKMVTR
Description: FP dose-response (competition) disrupting RBD1-Numb^FITC complex. Type of data set: binding. As to the method: To further examine the initial hits, we tested compounds with similar scaffolds shown in Figure 3 and Figure S1 in an FP dose-response assay. […] We thus focused our further validation studies on Aza-9.
Figure 4 FP dose-response validation compounds binding to RBD1 of MSI1. Ki values were calculated based on the Kd and the dose-response curves. TEXT PRINTED IN THE PICTURE: Aza-7: IC50 [μM]: 7.1; Ki [μM]: 3.0 | Aza-8: IC50 [μM]: 4.0; Ki [μM]: 1.7 | Aza-9: IC50 [μM]: 2.8; Ki [μM]: 1.2 | Aza-10: IC50 [μM]: 7.5; Ki [μM]: 3.2 | Aza-11: IC50 [μM]: 3.9; Ki [μM]: 1.7 | Aza-12: IC50 [μM]: 6.3; Ki [μM]: 2.7 | Aza-13: IC50 [μM]: 4.5; Ki [μM]: 1.9 | Aza-14: IC50 [μM]: 11.6; Ki [μM]: 5.0 | Aza-15: IC50 [μM]: >20 | Aza-16: IC50 [μM]: 6.8; Ki [μM]: 2.9 | Aza-17: IC50 [μM]: >20
pET21a-GB1-RBD1 (MSI1-RBD1) plasmids encoding the Homo sapiens RNA binding domain 1 (RBD1, residues 20-107) of MSI1 were constructed with Mus musculus cDNAs under T7 promoter. MSI1-RBD1 proteins were expressed in Escherichia coli and purified, as previously described. Protein concentrations were determined using the Bradford assay (Bio-Rad, Hercules, CA, USA). Purification of MSI2-RBD1 protein was carried out according to the previous publication.
FP, SPR and NMR assays were carried out according to the previous publication. For computer modeling of Aza-9 to MSI1/2, the AutoDock4.2.6 program was used for predicting the binding mode. The NMR structure of MSI1-RBD1 in complex with RNA (PDB: 2RS2) and the NMR structure of apo MSI2-RBD1 (PDB: 6C8U) were used as the receptor structure. The MSI1 RBD1–RNA interface and corresponding site in MSI2-RBD1 was used as the starting point for the docking calculations. The initial three-dimensional model of the Aza-9 compound was generated using the BABEL program and was used as starting coordinates to define the ligand structure. For docking, a grid box of size 40 × 44 × 56 A with 0.375 A spacing was centered at residue F23 in MSI1-RBD1 (or F24 in MSI2-RBD1). A total of 200 docking runs were carried out using the Lamarckian genetic algorithm. The docked conformation with the lowest energy was selected as the final conformation.

The test system of the next data set is HCT-116. Description: MTT-based cytotoxicity assay. Type of data set: cell-based, Human. Here is the method: In an 3-(4,5-dimethylthiazol-2-yl)-2,5-diphenyl tetrazolium bromide (MTT)-based cytotoxicity assay, free Aza-9 had no effect on the cell viability (Figure 7A), potentially due to poor cellular uptake (Figure 7B, upper left panel). We then used PEGylated liposomes to facilitate Aza-9 entry into the cells (Figure 7B, bottom panel compare to upper left panel). Compared to the free Aza-9, which has no effect at 300 µM, Aza-9-liposome (Aza-9-lip) killed colon cancer cell line HCT-116 with an IC50 around 90 µM (Figure 7A). […] Consistent with MTT, Aza-9-lip, but not liposomes, inhibited cell proliferation in a cell growth assay (Figure 7C). […] (Figure 8A). To determine whether Aza-9-lip induces apoptosis and/or autophagy in the colon cancer cell lines, we first measured caspase-3 and PARP cleavage levels. As shown in Figure 8B and Figure S5, Aza-9-lip induced caspase-3 and PARP cleavage in HCT-116 and DLD-1 cells. […]
Human colon cancer cell lines HCT-116, DLD-1, and RKO were obtained from American Type Culture Collection (ATCC) and are as described by Lan et al.. Cell growth, MTT, cell cycle analysis, western blot analysis, RT-PCR, and quantitative real-time PCR were carried out according to our previous publications. For western blot analysis with Aza-9-liposome treatment, samples were collected after 24 h; for quantitative real-time PCR, samples were collected after 48 h. […]

In a further data set the test system is T2, GB1-RBD1 (MSI1).
T2 construct: made in house; host or cells: Escherichia coli
Description: SPR binding to immobilized GB1-RBD1. Particulars: increasing concentrations. Details: species or system Homo sapiens. An excerpt: An SPR assay with the protein GB1-RBD1 and not the RNA allowed us to evaluate the binding of the compound to the protein directly.
Figure 5 Validation of the top hit Aza-9. (A) SPR analyses of Aza-9 binding to immobilized GB1-RBD1. Sensorgram representing direct binding kinetics for Aza-9 are shown in response units (RUs) as a function of time with increasing concentrations (shown as colorful lines). (B) Numb RNA pulldown. (Top) Numb^biotin (lane 4) can pull down MSI1 but not CTL^biotin (lane 3); Numb-Mut^biotin (lane 2) partially pulled down MSI1. […] (Bottom) 20 μM Aza-9 attenuated the binding between MSI1 and Numb^biotin RNA. n = 2, one representative western blot is shown. (C) Overlay of 15N-HSQC (Heteronuclear single quantum coherence spectroscopy) spectra sections of MSI1-RBD1 (black), and MSI1-RBD1 bound to Aza-9 at different ratios. (D) Computational docking of Aza-9 bound to RBD1. The Aza-9 is shown in sticks, and the protein is represented as spheres. Three of MSI1-RBD1 RNA binding residues (W29, F23, and K93) that undergo significant peak shifts are highlighted in cyan.
FP, SPR and NMR assays were carried out according to the previous publication. For computer modeling of Aza-9 to MSI1/2, the AutoDock4.2.6 program was used for predicting the binding mode. […]

The target in a further data set is T3, MSI2-RBD1 (Homo sapiens, UniProt Q96DH6).
T3 construct: made in house
T3 sequence (Q96DH6 21-111 limits assumed): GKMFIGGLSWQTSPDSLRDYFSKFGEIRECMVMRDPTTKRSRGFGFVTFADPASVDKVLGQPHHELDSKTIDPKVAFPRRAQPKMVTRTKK
Description: FP dose response of binding to MSI2-RBD1 (Numb^FITC RNA). The source says: To test whether Aza-9 can be used as a dual inhibitor to block the RNA-binding ability of both Musashi proteins, we tested Aza-9 for Musashi-2 (MSI2) binding in FP and NMR assays as previously described. […] These residues are in similar positions to F23, F65, and K93 in MSI1-RBD1 [36]. We mapped the peak intensity ratios lower than one standard deviation from the mean (Figure S2) to the structure of MSI2-RBD1. Residues with significant peak intensity reductions clustered around the RNA binding site, which is composed of the central four anti-parallel β sheets and surrounding loops (Figure 6C).
Figure 6 Aza-9 binds to MSI2-RBD1. (A) FP dose response of Aza-9 binding to MSI2-RBD1. (B) ^1H-^15N HSQC spectra of 80 μM ^15N and ^13C ILV methyl labeled MSI2-RBD1 with increasing molar ratios of AZA-9. (C) Mapping residues with peak intensity ratio lower than one standard deviation from the mean onto the structure of MSI2-RBD1. Residues with peak intensity ratio lower than 0.40 are colored red; residues with peak intensity ratios in the range of 0.40–0.54 are colored yellow. (D) Computational docking of Aza-9 bound to MSI2-RBD1. The Aza-9 is shown in sticks, and the protein is represented as spheres. Five of MSI2-RBD1 RNA binding residues (M23, G26, F64, V95, and K94) that undergo significant peak shifts are highlighted in green. […]

The subject of another data set is T4, MSI1.
T4 construct: test whether biotinylated Numb RNA (Numb^biotin) can pull down MSI1 protein from the cell lysate; endogenous in cells; host or cells: HCT-116 β/W
Put plainly: Numb RNA pull-down from HCT-116 β/W cell lysate. The format is cell-based, Human. The following applies: 20 μM, 6 h. The source says:
To test whether Aza-9 disrupts the binding of MSI1 to Numb RNA in cells, we carried out an RNA pull-down assay using HCT-116 β/W cell lysate. Before we tested our compound in the assay, we tested whether biotinylated Numb RNA (Numb^biotin) can pull down MSI1 protein from the cell lysate. […] Mutations in Numb (Numb-mut^biotin) attenuated its binding to MSI1 (lane 2 versus lane 4, Figure 5B and Figure S4 top panel). As a positive control, we added non-labelled Numb RNA to the system, Numb RNA completely abolished the binding between Numb^biotin and MSI1 (lane 6 versus lane 4, Figure 5B and Figure S4 top panel). […] Next, we tested whether Aza-9 can attenuate MSI1 RNA binding.
RNA pull-downs were carried out according to manufacturer’s protocol with modifications (Roche, Basel, Switzerland). Briefly, HCT-116 β/W cells were plated on 100 mm dish on day 1. The next day, cells were treated with Aza-9 (20 μM) or DMSO for 6 h, and cell lysates were collected using buffer 1 from IP kit (Roche). Protein concentrations were measured for each sample, and streptavidin beads were added for preclearance and incubated at 4 °C for 3 h. After preclearance, for each sample, 500 μg of total protein was transferred to a new tube. For positive control, unlabeled Numb (final concentration: 5 μM) was added and incubated in 4 °C. […]

In the next data set the target is GB1-MSI1-RBD1 (Homo sapiens (Methods: human RBD1, …, UniProt O43347 20-107)). Put plainly: fluorescence polarization; 2-10 nM RNA; FP with 2 nM FITC-RNA; 0-2% DMSO had no significant effect (2 h incubation); buffer, salt, pH and temperature not given (cited to earlier publications). The following applies: protein: recombinant; tags: GB1 (protein G B1 domain); label: 3'-FITC; single strand.

Where [1] appears, read: FP dose-response, RBD1 of MSI1, read-out: IC50.
Where [2] appears, read: calculated based on the Kd and the dose-response curves, read-out: Ki.

Like-named read-outs stand apart in the source and are kept apart here.

Turning to `CC[C@H](C)/C=C(C)/C=C/C1=CC2=C(Cl)C(=O)[C@](C)(OC(C)=O)C(=O)C2=CO1` [Aza-7, sclerotiorin], the IC50 at RBD1 of MSI1 (setting [1]) is 7100 nM. Further, the Ki on RBD1 of MSI1 (setting [2]) is 3000 nM.
`CC[C@H](C)/C=C(C)/C=C/C1=CC2=C(Cl)C(=O)C(C)(OC(C)=O)C(=O)C2=CO1` (some centres unmarked) [Aza-8]: at RBD1 of MSI1 (setting [1]), the IC50 is 4000 nM. In addition, on RBD1 of MSI1 (setting [2]), the Ki is 1700 nM.
Consider `CC[C@H](C)/C=C(C)/C=C/C1=CC2=C(Br)C(=O)C(C)(OC(C)=O)C(=O)C2=CO1` (some centres unmarked) [Aza-9], for which the “effect on cell viability” value with HCT-116 (300 µM, HCT-116) is recorded as “no effect”. For the same molecule, the IC50 was > 300000 nM in the data set on HCT-116 (Homo sapiens, HCT-116, MTT); 2800 nM on RBD1 of MSI1 (setting [1]); 4100 nM at MSI2-RBD1. Further, at RBD1 of MSI1, the “dose-response effect in disrupting the RBD1-Numb^FITC complex / affinity towards GB1-RBD1” value was “highest affinity”. The Ki at RBD1 of MSI1 (setting [2]) is 1200 nM; at MSI2-RBD1, 500 nM. Besides, the “binding to GB1-RBD1 in SPR” value in the data set with GB1-RBD1 (MSI1) is listed as “dose-dependent binding”. The “binding between MSI1 and Numb RNA (pull-down)” value in the data set on MSI1 is on record as “attenuate, at least in part”.
`CC[C@H](C)/C=C(C)/C=C/C1=CC2=CC(=O)C(C)(O)C(=O)C2=CO1` (some centres unmarked) [Aza-11]: the IC50 at RBD1 of MSI1 (setting [1]) was 3900 nM. For the same molecule, the Ki on RBD1 of MSI1 (setting [2]) is 1700 nM.
On to `CC[C@H](C)/C=C(C)/C=C/C1=CC2=C(Cl)C(=O)C(C)(O)C(=O)C2=CO1` (some centres unmarked) [Aza-12], for which, on RBD1 of MSI1, the IC50 is 6300 nM and the Ki was 2700 nM.
With `CC[C@H](C)/C=C(C)/C=C/C1=CC2=C(Br)C(=O)C(C)(O)C(=O)C2=CO1` (some centres unmarked) [Aza-13], the IC50 at RBD1 of MSI1 (setting [1]) is 4500 nM. Further, the Ki on RBD1 of MSI1 (setting [2]) is 1900 nM.
UAGGUAGUAGUUUUA (ssRNA) [NumbFITC RNA]: in the data set with GB1-MSI1-RBD1, the dissociation constant Kd was < 250 nM.
